Results reported in patent US7098332B2, “5,8-Dihydro-6H-pyrido[2,3-d]pyrimidin-7-ones” (Hoffmann-La Roche Inc., priority 2002, dated 2006).

How the values were obtained:
FGFR = target: T1, FGFR; experiment: FGFR kinase HTRF assay; assay type: biochemical; conditions: 10 μM ATP
T1 construct: fused on or other part: GST tag
Experimental: (§1) To determine inhibition of KDR, FGFR, EGFR, and PDGFR activity, kinase assays were conducted using an HTRF (Homogeneous Time Resolved Fluorescence) assay. This assay is described in A. J. Kolb et. al., Drug Discovery Today, 1998, 3(7), p 333.
(§2) Kinase activity assays were performed in 96-well polypropylene plates (Falcon) with a total volume of 90 μL in each well. Each well contained 1 μM KDR substrate (Biotin-EEEEYFELVAKKKK), 1 nM activated KDR, and a test compound with one of 8 assay concentrations ranging from 100 μM to […] (1:5 serial dilution). The kinase activity assay was done in the presence of 100 mM HEPES, pH 7.4, 1 mM DTT, 0.1 mM Na2VO4, 25 mM MgCl2, 50 mM NaCl (from KDR stock solution), 1% DMSO (from compound), 0.3 mM ATP (at Km concentration) and 0.02% BSA. The reaction was incubated at 37° C. for 30 minutes. To stop the KDR reaction, 72 μL of reaction mixture was transferred into a STOP plate containing 18 μL of revelation buffer (20 mM EDTA, 50 mM HEPES, pH 7.4, 0.02% BSA, 10 nM Eu-labelled anti-pY antibody (final conc. 2 nM), and 100 nM streptavidin (final conc. 20 nM)). After mixing, 35 μL of solution was transferred into duplicate wells of a 384-well black plate (Costar), and read at 615/665 nm on a Wallac Victor 5 reader.
FGFR, EGFR, and PDGFR activity assays were carried out as described above for the KDR activity assay with the following differences. GST-tagged FGFR enzyme was activated at room temperature for 1 hour in the following activation buffer: 100 mM HEPES, pH 7.4, 50 mM NaCl, 20 mM MgCl2, and 4 mM ATP. The kinase activity assay was performed with 1 μM substrate (Biotin-EEEEYFELV), 1.5 nM activated FGFR, and test compound in the presence of 100 mM HEPES, 1 mM DTT, 0.4 mM MgCl2, 0.4 mM MnCl2, 50 mM NaCl, 1% DMSO, 10 μM ATP (Km=8.5 μM for FGFR), 0.1 mM Na2VO4, and 0.02% BSA, in a total volume of 90 μL. The rest of the assay was performed in the same manner as KDR assay.
(§3) Compound IC50 values were determined from duplicate sets of data, and calculated by using Excel and fitting data to equation Y=[(a−b)/{1+(X/c)^d]+b, where a and b are enzyme activity in the presence of no test inhibitor compound and an infinite amount of inhibitor test compound, respectively, c is the IC50 and d is the hill constant of the compound response. The IC50 value is the concentration of test compound that reduces by 50% the enzyme activity under the test conditions described.

KDR = target: T2, KDR (Homo sapiens, UniProt P35968); experiment: KDR kinase HTRF assay; assay type: biochemical; conditions: 0.3 mM ATP
T2 construct: EEE tag
T2 sequence (P35968 20-1356): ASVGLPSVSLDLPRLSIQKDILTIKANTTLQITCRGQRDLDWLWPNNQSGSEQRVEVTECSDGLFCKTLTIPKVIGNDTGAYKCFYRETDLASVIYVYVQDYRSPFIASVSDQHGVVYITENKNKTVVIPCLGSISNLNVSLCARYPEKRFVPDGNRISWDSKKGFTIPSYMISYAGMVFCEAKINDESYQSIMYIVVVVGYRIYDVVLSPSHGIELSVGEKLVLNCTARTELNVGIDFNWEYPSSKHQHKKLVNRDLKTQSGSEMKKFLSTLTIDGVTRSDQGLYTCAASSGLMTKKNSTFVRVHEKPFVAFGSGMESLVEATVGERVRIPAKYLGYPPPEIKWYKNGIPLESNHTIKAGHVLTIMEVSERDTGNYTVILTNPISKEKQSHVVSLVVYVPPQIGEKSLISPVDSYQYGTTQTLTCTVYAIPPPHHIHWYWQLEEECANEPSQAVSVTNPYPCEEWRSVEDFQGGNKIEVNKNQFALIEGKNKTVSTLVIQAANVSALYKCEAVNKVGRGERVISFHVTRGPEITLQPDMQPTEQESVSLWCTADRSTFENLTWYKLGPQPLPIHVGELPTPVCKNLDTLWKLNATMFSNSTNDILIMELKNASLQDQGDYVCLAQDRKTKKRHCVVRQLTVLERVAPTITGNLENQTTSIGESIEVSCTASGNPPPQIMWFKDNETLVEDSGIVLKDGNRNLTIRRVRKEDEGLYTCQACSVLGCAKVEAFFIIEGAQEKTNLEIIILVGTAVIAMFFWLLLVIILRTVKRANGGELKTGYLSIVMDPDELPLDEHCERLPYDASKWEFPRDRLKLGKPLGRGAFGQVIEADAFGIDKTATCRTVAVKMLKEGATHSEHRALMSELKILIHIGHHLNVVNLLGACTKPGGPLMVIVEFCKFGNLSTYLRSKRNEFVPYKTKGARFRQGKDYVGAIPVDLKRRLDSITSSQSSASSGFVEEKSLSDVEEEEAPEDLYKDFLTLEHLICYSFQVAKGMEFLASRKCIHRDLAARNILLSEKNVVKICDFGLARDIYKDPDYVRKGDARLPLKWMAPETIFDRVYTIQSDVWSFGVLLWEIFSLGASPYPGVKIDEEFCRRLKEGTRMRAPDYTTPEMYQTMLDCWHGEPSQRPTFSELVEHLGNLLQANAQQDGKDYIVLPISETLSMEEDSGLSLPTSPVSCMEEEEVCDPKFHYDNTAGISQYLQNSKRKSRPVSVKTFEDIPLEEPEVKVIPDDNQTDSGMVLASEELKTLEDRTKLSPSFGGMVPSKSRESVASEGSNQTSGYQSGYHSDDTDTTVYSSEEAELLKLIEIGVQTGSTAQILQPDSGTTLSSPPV
Experimental: as §1
Prior to kinase reaction, recombinant EEE-tagged KDR was activated in the presence of activation buffer (50 mM HEPES, pH 7.4, 1 mM DTT, 10% glycerol, 150 mM NaCl, 0.1 mM EDTA, 26 mM MgCl2, and 4 mM ATP). The enzyme was incubated at 4° C. for 1 hour.
as §2, §3

[1] = test system: Human umbilical vein endothelial cells; experiment: VEGF-stimulated HUVEC proliferation assay (BrdU); assay type: cell-based; conditions: VEGF 20 ng per mL, BrdU labeling, read-out: HUVEC/VEFG IC50
Experimental: (§4) The antiproliferative activity of test-compounds of this invention in cell-based assays was evaluated by BrdU assay using the BrdU kit (Roche Biochemicals 1-647-229). Human umbilical vein endothelial cells (Clonetics CC-2519) were cultured in EGM-2 (Clonetics CC-3162) medium and seeded at 10000 cells per well in a volume of 200 μL of EGM-2 (Clonetics CC-3162) media in a 96-well flat bottom plates (Costar 3595) overnight. After 24 hours of growth at 37° C. with 5% CO2, the incubation media was removed slowly by aspiration and the content of each well was washed with 300 μL pre-warmed EBM-2 (Clonetics CC-3156) containing 50 μg per mL of gentamycin and 50 ng per mL of amphotercin-B (Clonetics CC-4083). […]
(§5) After 24 hour exposure to the test compounds, the cells were labeled with BrdU (Roche Biochemicals 1-647-229), by adding 20 μL per well of BrdU labeling reagent that has been diluted (1:100) in serum starvation medium. […] The plates were read at 450 nm with reference wavelength of 650 nm. The percent inhibition for each test compound was calculated by subtracting the absorbency of the blank (no cells) wells from all wells, then subtracting the division of the average absorbency of each test duplicate by the average of the controls from 1. […] The IC50 is determined from the linear regression of a plot of the logarithm of the concentration versus percent inhibition.

[2] = test system: Human umbilical vein endothelial cells; experiment: FGF-stimulated HUVEC proliferation assay (BrdU); assay type: cell-based; conditions: FGF 5 ng per mL, BrdU labeling, read-out: HUVEC/bFGFR IC50
Experimental: as §4, §5

PDGFR = PDGFR kinase HTRF assay; assay type: biochemical; conditions: 2.3 μM ATP
Experimental: as §1, §2
(§6) The PDGFR kinase activity assay was performed with 1 μM substrate (Biotin-EEEEYFELV), 1.0 nM PDGFR, test compounds, 100 mM HEPES, pH 7.4, 1 mM DTT, 5 mM MgCl2, 2 mM MnCl2, 1% DMSO, 2.3 μM ATP (Km for PDGFR), 0.1 mM Na2VO4, and 0.02% BSA. The rest of the assay was performed in the same manner as the KDR assay.
as §3

EGFR = EGFR (Homo sapiens, UniProt P00533); experiment: EGFR kinase HTRF assay; assay type: biochemical; conditions: 0.5 μM ATP
Sequence of EGFR (P00533 25-1210, species assumed): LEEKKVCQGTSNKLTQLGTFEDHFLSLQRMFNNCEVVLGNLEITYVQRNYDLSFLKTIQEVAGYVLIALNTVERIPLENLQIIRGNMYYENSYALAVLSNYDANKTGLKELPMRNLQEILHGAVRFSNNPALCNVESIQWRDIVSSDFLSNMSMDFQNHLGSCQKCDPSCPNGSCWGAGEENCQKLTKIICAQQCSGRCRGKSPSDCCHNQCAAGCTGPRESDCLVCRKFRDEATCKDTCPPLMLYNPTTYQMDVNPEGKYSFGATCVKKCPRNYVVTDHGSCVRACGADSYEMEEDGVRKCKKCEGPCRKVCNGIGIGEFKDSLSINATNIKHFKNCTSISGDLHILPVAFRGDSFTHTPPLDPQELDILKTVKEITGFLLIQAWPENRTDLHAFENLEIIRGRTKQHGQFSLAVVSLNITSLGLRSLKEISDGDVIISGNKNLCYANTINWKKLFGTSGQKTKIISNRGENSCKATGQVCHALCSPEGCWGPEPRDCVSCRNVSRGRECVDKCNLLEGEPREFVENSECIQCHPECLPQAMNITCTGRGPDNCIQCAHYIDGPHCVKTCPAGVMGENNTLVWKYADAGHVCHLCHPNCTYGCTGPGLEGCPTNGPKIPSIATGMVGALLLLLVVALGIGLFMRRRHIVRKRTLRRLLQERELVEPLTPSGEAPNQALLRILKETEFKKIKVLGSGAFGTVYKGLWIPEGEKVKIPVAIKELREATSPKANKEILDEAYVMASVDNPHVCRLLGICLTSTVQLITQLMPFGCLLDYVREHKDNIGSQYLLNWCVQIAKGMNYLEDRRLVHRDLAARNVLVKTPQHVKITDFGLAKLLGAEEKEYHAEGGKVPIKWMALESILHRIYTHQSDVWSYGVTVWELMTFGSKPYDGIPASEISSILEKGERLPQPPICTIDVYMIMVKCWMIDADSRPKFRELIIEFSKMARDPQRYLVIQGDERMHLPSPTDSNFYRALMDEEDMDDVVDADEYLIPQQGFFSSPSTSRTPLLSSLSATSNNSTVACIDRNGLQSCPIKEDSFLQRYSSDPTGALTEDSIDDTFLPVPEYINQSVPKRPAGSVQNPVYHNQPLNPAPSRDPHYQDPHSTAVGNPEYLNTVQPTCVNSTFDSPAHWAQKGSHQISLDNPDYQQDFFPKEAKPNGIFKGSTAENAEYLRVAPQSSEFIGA
Experimental: as §1, §2
as §6, with “EGFR” for “PDGFR”, “1.5” for “1.0”, “EGFR,” for “PDGFR,”, “0.5” for “2.3”, “EGFR),” for “PDGFR),”
as §3

Structure (SMILES)	IC50 (FGFR) [µM]	IC50 (KDR) [µM]	IC50 [1] [µM]	IC50 [2] [µM]	IC50 (PDGFR) [µM]	IC50 (EGFR) [µM]
O=C1C(c2c(Cl)cccc2Cl)Cc2cnc(Nc3ccccc3)nc2N1c1ccccc1 (stereo not drawn) [Example 2c, 6-(2,6-Dichloro-phenyl)-8-phenyl-2-phenylamino-5,8-dihydro-6H-pyrido[2,3-d]pyrimidin-7-one]	< 10	< 10	< 10	< 10	< 10	< 10
COc1cc(OC)cc(C2Cc3cnc(Nc4ccccc4)nc3N(c3ccccc3)C2=O)c1 (stereo not drawn) [Example 3d, 6-(3,5-Dimethoxy-phenyl)-8-phenyl-2-phenylamino-5,8-dihydro-6H-pyrido[2,3-d]pyrimidin-7-one]	< 10	< 10	< 10	< 10	< 10	< 10
